Assay results published in PubChem BioAssay (NCI).
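Method: 48-hour compound exposure of cells in 96-well plates, five concentrations, linear interpolation of endpoints. GI50 = concentration required for 50% inhibition of growth. TGI denotes the concentration required for complete inhibition of growth.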

Experiments:
Assay in all cases: NCI-60 cell line screen, 48 h
UACC-62 melanoma = tested on: UACC-62 melanoma
SNB-19 CNS = tested on: SNB-19 CNS
HOP-92 NSCLC = tested on: HOP-92 NSCLC
A549 NSCLC = tested on: A549 NSCLC
A498 renal = tested on: A498 renal
ACHN renal = tested on: ACHN renal
IGROV1 ovarian = tested on: IGROV1 ovarian
RXF 393 renal = tested on: RXF 393 renal
HOP-62 NSCLC = tested on: HOP-62 NSCLC
KM12 colon = tested on: KM12 colon
UACC-257 melanoma = tested on: UACC-257 melanoma
SK-OV-3 ovarian = tested on: SK-OV-3 ovarian
NCI/ADR-RES ovarian = tested on: NCI/ADR-RES ovarian
M14 melanoma = tested on: M14 melanoma
HS 578T breast = tested on: HS 578T breast
EKVX NSCLC = tested on: EKVX NSCLC
MOLT-4 leukemia = tested on: MOLT-4 leukemia
TK-10 renal = tested on: TK-10 renal
SK-MEL-2 melanoma = tested on: SK-MEL-2 melanoma
OVCAR-5 ovarian = tested on: OVCAR-5 ovarian
SNB-75 CNS = tested on: SNB-75 CNS
T-47D breast = tested on: T-47D breast
NCI-H23 lung = tested on: NCI-H23 lung
CCRF-CEM leukemia = tested on: CCRF-CEM leukemia
NCI-H226 lung = tested on: NCI-H226 lung
OVCAR-8 ovarian = tested on: OVCAR-8 ovarian
BT-549 breast = tested on: BT-549 breast
HT29 colon = tested on: HT29 colon
MDA-MB-231 breast = tested on: MDA-MB-231 breast
OVCAR-4 ovarian = tested on: OVCAR-4 ovarian
MCF7 breast = tested on: MCF7 breast
HL-60(TB) leukemia = tested on: HL-60(TB) leukemia
LOX IMVI melanoma = tested on: LOX IMVI melanoma
SF-539 CNS = tested on: SF-539 CNS
HCT-116 colon = tested on: HCT-116 colon
786-0 renal = tested on: 786-0 renal
UO-31 renal = tested on: UO-31 renal
HCC-2998 colon = tested on: HCC-2998 colon
HCT-15 colon = tested on: HCT-15 colon
SK-MEL-28 melanoma = tested on: SK-MEL-28 melanoma
SN12C renal = tested on: SN12C renal
SK-MEL-5 melanoma = tested on: SK-MEL-5 melanoma
NCI-H522 lung = tested on: NCI-H522 lung
MALME-3M melanoma = tested on: MALME-3M melanoma
U251 CNS = tested on: U251 CNS
NCI-H460 lung = tested on: NCI-H460 lung
SW-620 colon = tested on: SW-620 colon
OVCAR-3 ovarian = tested on: OVCAR-3 ovarian
PC-3 prostate = tested on: PC-3 prostate
DU-145 prostate = tested on: DU-145 prostate

## COc1cc(-c2nn(-c3ccc(NC(=O)NCCCNC(=O)c4ccccc4)cc3)cc2-c2ccncc2)ccc1Cl
UACC-62 melanoma
  GI50: 543 nM
  TGI: 3480 nM
SNB-19 CNS
  GI50: 846 nM
  TGI: > 100000 nM
HOP-92 NSCLC
  GI50: 1260 nM
  TGI: 8100 nM
A549 NSCLC
  GI50: 3230 nM
  TGI: 77600 nM
A498 renal
  GI50: 467 nM
  TGI: 5150 nM
ACHN renal
  GI50: 1640 nM
  TGI: 5300 nM
IGROV1 ovarian
  GI50: 843 nM
  TGI: > 100000 nM
RXF 393 renal
  GI50: 293 nM
  TGI: 917 nM
HOP-62 NSCLC
  GI50: 460 nM
  TGI: > 100000 nM
KM12 colon
  GI50: 390 nM
  TGI: 2000 nM
UACC-257 melanoma
  GI50: 2370 nM
  TGI: 23700 nM
SK-OV-3 ovarian
  GI50: 752 nM
  TGI: > 100000 nM
NCI/ADR-RES ovarian
  GI50: 3780 nM
  TGI: > 100000 nM
M14 melanoma
  GI50: 311 nM
  TGI: 1840 nM
HS 578T breast
  GI50: 428 nM
  TGI: > 100000 nM
EKVX NSCLC
  GI50: 1290 nM
  TGI: > 100000 nM
MOLT-4 leukemia
  GI50: 905 nM
  TGI: > 100000 nM
TK-10 renal
  GI50: 2300 nM
  TGI: 8010 nM
SK-MEL-2 melanoma
  GI50: 637 nM
  TGI: 5220 nM
OVCAR-5 ovarian
  GI50: 1100 nM
  TGI: > 100000 nM
SNB-75 CNS
  GI50: 1120 nM
  TGI: > 100000 nM
T-47D breast
  GI50: 611 nM
  TGI: 14000 nM
NCI-H23 lung
  GI50: 665 nM
  TGI: > 100000 nM
CCRF-CEM leukemia
  GI50: 385 nM
  TGI: > 100000 nM
NCI-H226 lung
  GI50: 1470 nM
  TGI: > 100000 nM
OVCAR-8 ovarian
  GI50: 635 nM
  TGI: 12700 nM
BT-549 breast
  GI50: 887 nM
  TGI: 5330 nM
HT29 colon
  GI50: 378 nM
  TGI: 2160 nM
MDA-MB-231 breast
  GI50: 1140 nM
  TGI: > 100000 nM
OVCAR-4 ovarian
  GI50: 1000 nM
  TGI: > 100000 nM
MCF7 breast
  GI50: 338 nM
  TGI: > 100000 nM
HL-60(TB) leukemia
  GI50: 358 nM
  TGI: 1200 nM
LOX IMVI melanoma
  GI50: 597 nM
  TGI: 8070 nM
SF-539 CNS
  GI50: 266 nM
  TGI: 843 nM
HCT-116 colon
  GI50: 361 nM
  TGI: 5510 nM
786-0 renal
  GI50: 493 nM
  TGI: 2860 nM
UO-31 renal
  GI50: 1560 nM
  TGI: 11300 nM
HCC-2998 colon
  GI50: 1210 nM
  TGI: 8810 nM
HCT-15 colon
  GI50: 1940 nM
  TGI: > 100000 nM
SK-MEL-28 melanoma
  GI50: 1340 nM
  TGI: > 100000 nM
SN12C renal
  GI50: 718 nM
  TGI: > 100000 nM
SK-MEL-5 melanoma
  GI50: 362 nM
  TGI: 1430 nM
NCI-H522 lung
  GI50: 231 nM
  TGI: 3100 nM
MALME-3M melanoma
  GI50: 457 nM
  TGI: 2880 nM
U251 CNS
  GI50: 561 nM
  TGI: 21900 nM
NCI-H460 lung
  GI50: 404 nM
  TGI: 9590 nM
SW-620 colon
  GI50: 455 nM
  TGI: > 100000 nM
OVCAR-3 ovarian
  GI50: 252 nM
  TGI: 647 nM
PC-3 prostate
  GI50: 436 nM
  TGI: > 100000 nM
DU-145 prostate
  GI50: 385 nM
  TGI: > 100000 nM
